Measured values published in patent US8623851B2 (Mylan Specialty L.P., priority 2001, dated 2014).
Like-named read-outs stand apart in the source and are kept apart here.

Legend:
[1] = system: patients with reversible obstructive respiratory diseases; settings: cited from earlier work
[2] = Decomposition kinetics (stability) of formoterol in aqueous solution; format: physicochemical
Excerpt: In the embodiments herein, the compositions have a pH of about 2.0 to about 8.0. The particular pH of a given composition for long term storage provided herein may be determined empirically using standard stability assays well known to those of skill in the art (see, e.g., the Examples). […] In certain of the above embodiments, the compositions are formulated at a pH of about 4, 4.4 or 4.6 up to about 5.5, 5.7 or 6. In other embodiments, the pH is about 5.0.
In other of the above embodiments, the compositions further contain a buffer, including, but not limited to, citric acid/phosphate, acetate, barbital, borate, Britton-Robinson, cacodylate, citrate, collidine, formate, maleate, Mcilvaine, phosphate, Prideaux-Ward, succinate, citrate-phosphate-borate (Teorell-Stanhagen), veronal acetate, MES (2-(N-morpholino)ethanesulfonic acid), BIS-TRIS (bis(2-hydroxyethyl)imino-tris-(hydroxymethyl)methane), ADA (N-(2-acetamido)-2-iminodiacetic acid), ACES (N-(carbamoylmethyl)-2-aminoethanesulfonaic acid), PIPES (piperazine-N,N′-bis(2-ethanesulfonic acid)), MOPSO (3-(N-morpholino)-2-hydroxypropanesulfonic acid), BIS-TRIS PROPANE (1,3-bis(tris(hydroxy-methyl)methylamino)propane), BES (N,N-bis(2-hydroxyethyl)-2-amino-ethanesulfonaic acid), MOPS (3-(N-morpholino)propanesulfonic acid), TES (N-tris(hydroxymethyl)methyl-2-aminoethanesulfonic acid), HEPES (N-(2-hydroxyethyl)piperazine-N′-(2-eth-anesulfonic acid), DIPSO (3-(N,N-bis(2-hydroxyethyl)amino)-2-hydroxypropan-esulfonicacid), MOBS (4-(N-morpholino)butanesulfonic acid), TAPSO (3-(N-tris(hydroxymethyl)methyl-amino)-2-hydroxypropanesulfonic acid), TRIZMA® (tris(hydroxymethyl-aminomethane), HEPPSO(N-(2-hydroxyethyl)piperazine-N′-(2-hydroxy-propanesulfonic acid), POPSO (piperazine-N,N′-bis(2-hydroxypropane-sulfonic acid)), TEA (triethanolamine), EPPS (N-(2-hydroxyethyl)-piperazine-N′-(3-propanesulfonic acid), TRICINE (N-tris(hydroxy-methyl)methylglycine), GLY-GLY (glycylglycine), BICINE (N,N-bis(2-hydroxyethyl)glycine), HEPBS (N-(2-hydroxyethyl)piperazine-N′-(4-butanesulfonic acid)), TAPS(N-tris(hydroxymethyl)methyl-3-amino-propanesulfonic acid), AMPD (2-amino-2-methyl-1,3-propanediol), and/or any other buffers known to those of skill in the art. In one embodiment, the buffer is citric acid/phosphate buffer, acetate buffer, citrate buffer or phosphate buffer. In another embodiment, the buffer is a citrate buffer (citric acid/sodium citrate). […] Buffer concentrations for use herein include from about 0 or 0.01 mM to about 150 mM, or about 1 mM to about 20 mM. In one embodiment, the buffer concentration is about 5 mM. In another embodiment, the buffer concentration is about 1 mM to about 50 mM, or about 20 mM. […] The particular buffer and buffer concentration of a given composition for long term storage provided herein may be determined empirically using standard stability assays well known to those of skill in the art (see, e.g., the Examples).
Ionic strengths of the compositions provided herein are from about 0 to about 0.4, or from about 0.05 to about 0.16. […] The particular ionic strength of a given composition for long term storage provided herein may be determined empirically using standard stability assays well known to those of skill in the art (see, e.g., the Examples).

[3] = Estimated shelf-life of formoterol in the compositions (Arrhenius kinetics); format: physicochemical

Compound: COc1ccc(CC(C)NCC(O)c2ccc(O)c(NC=O)c2)cc1 (racemic) [formoterol, 2-hydroxy-5-((1RS)-1-hydroxy-2-(((1RS)-2-(p-methoxyphenyl)-1-methylethyl)amino)ethyl)formanilide]
- aqueous solubility (pH between about 5 and about 7, ambient temperature): approximately 2.2 mg/mL
- aqueous solubility (pH of about 3, ambient temperature): about 4.8 mg/mL
- aqueous solubility (pH of about 4, ambient temperature): approximately 3 mg/mL
- solubility in pure water (pure water (HPLC water), ambient temperature): approximately 2 mg/mL
- duration of bronchodilatory effect [1]: greater than 12 hours
- onset of bronchodilatory effect [1]: 1 to 3 min
- pH at which decomposition is slowest ([2]; aqueous solution, 60° C., buffer concentration 5 mM, ionic strength 0.05): about 5.0
- rate constant (kobs) for decomposition ([2]; aqueous solution, 60° C., pH 3, buffer concentration 5 mM, ionic strength 0.05): approximately 0.62 day^−1
- rate constant (kobs) for decomposition ([2]; aqueous solution, 60° C., pH 4, buffer concentration 5 mM, ionic strength 0.05): ~0.11 day⁻¹
- rate constant (kobs) for decomposition ([2]; aqueous solution, 60° C., pH 5, buffer concentration 5 mM, ionic strength 0.05): ~0.044 day⁻¹
- rate constant (kobs) for decomposition ([2]; aqueous solution, 60° C., pH 7, buffer concentration 5 mM, ionic strength 0.05): ~0.55 day⁻¹
- effect of buffer concentration on rate constant of decomposition ([2]; low and approximately neutral pH conditions, buffer concentration 5 mM to 20 mM): increased the rate constant of decomposition significantly
- effect of buffer concentration on rate constant of decomposition ([2]; pH region of about 4.5 to about 5.5, buffer concentration 5 mM to 20 mM): no noticeable differences in rate constant were observed
- estimated shelf-life ([3]; 5° C.): about 6.2 years
- estimated shelf-life ([3]; 25° C.): about 7.5 months
